Experimental data from BigSolDB 2.1.

O=C(O)c1cccc(O)c1
solubility (mole fraction)
Conditions	278.15 K	283.15 K	288.15 K	293.15 K	298.15 K	303.15 K	308.15 K	313.15 K	318.15 K	323.15 K
in acetone	0.101	0.107	0.111	0.116	0.122	0.128	0.134	0.142	0.151	0.159
in acetonitrile	0.00646	0.00759	0.0103	0.0116	0.0132	0.0155	0.017	0.0199	0.0228	0.0262
in ethanol	0.0936	0.0968	0.101	0.106	0.112	0.116	0.121	0.127	0.134	0.147
in ethyl acetate	0.0377	0.041	0.0441	0.0486	0.0534	0.0565	0.0607	0.0682	0.0742	0.0764
in ethylene glycol	0.0804	0.0829	0.0847	0.0883	0.0959	0.102	0.109	0.116	0.124	0.136
in isopropanol	0.0984	0.104	0.109	0.114	0.121	0.127	0.134	0.14	0.148	0.155
in isopropyl acetate	0.0305	0.0337	0.0365	0.0383	0.043	0.0465	0.0507	0.0552	0.059	0.0618
in methanol	0.0815	0.0856	0.0895	0.0943	0.0995	0.105	0.11	0.117	0.124	0.13
in methyl acetate	0.0388	0.0435	0.048	0.0502	0.0549	0.0577	0.0631	0.0691	0.0764	0.0808
in n-butanol	0.0772	0.0831	0.0857	0.0919	0.0957	0.102	0.109	0.115	0.12	0.125
in n-butyl acetate	0.0361	0.0397	0.043	0.0459	0.0486	0.0526	0.0564	0.0611	0.0661	0.0693
in n-pentanol	0.0774	0.0815	0.0852	0.0902	0.0951	0.101	0.106	0.113	0.118	0.125
in n-propanol	0.0827	0.0878	0.0949	0.0975	0.101	0.108	0.114	0.121	0.128	0.133
in n-propyl acetate	0.0379	0.0434	0.0449	0.047	0.0513	0.0569	0.061	0.0651	0.0711	0.0769
